The values below come from US10335399B2, “Chromane, isochromane and dihydroisobenzofuran derivatives as mGluR2—negative allosteric modulators, compositions, and their use” (Merck Sharp & Dohme Corp., priority 2016, dated 2019).

The target in the assay is recombinant human mGluR2 (Homo sapiens (Human), UniProt Q14416). Briefly: FLIPR Ca2+ mobilization assay: inhibition of glutamate-dependent mGluR2 activity. The class given is cell-based. Conditions: CHO dhfr- cells stably expressing recombinant human mGluR2 and Gα16, Fluo-4 AM, FLIPR384; inhibition of response to 2,500 nM glutamate. As to the method:
Inhibition constants (IC50s; the concentration of compound required to provide 50% of maximal activity) are determined as follows. The compounds of the invention were tested in a fluorescence laser imaging plate reader based assay. This assay is a common functional assay to monitor Ca^2+ mobilization in whole cells expressing recombinant receptor coupled with a promiscuous G-protein. CHO (Chinese hamster ovary) dhfr− cells stably expressing recombinant human mGluR2 and Gα16 loaded with Fluo-4 AM (Invitrogen, Carlsbad Calif., USA) were treated with various concentrations of each of the tested compounds of the invention and the Ca^2+ response was monitored on a FLIPR384 instrument (Molecular Devices, Sunnydale Calif., USA). […] The maximum calcium response at each concentration of compound for agonist or antagonist were plotted as dose responses and the curves were fitted with a four parameter logistic equation giving IC50 and Hill coefficient using the iterative non-linear curve fitting software ADA (Merck & Co., Inc.). Data in the following table lists the activity of each compound to inhibit glutamate-dependent mGluR2 activity in this cellular assay.

pIC50: −log10 of the molar value.

Chain of recombinant human mGluR2 (Q14416 19-872): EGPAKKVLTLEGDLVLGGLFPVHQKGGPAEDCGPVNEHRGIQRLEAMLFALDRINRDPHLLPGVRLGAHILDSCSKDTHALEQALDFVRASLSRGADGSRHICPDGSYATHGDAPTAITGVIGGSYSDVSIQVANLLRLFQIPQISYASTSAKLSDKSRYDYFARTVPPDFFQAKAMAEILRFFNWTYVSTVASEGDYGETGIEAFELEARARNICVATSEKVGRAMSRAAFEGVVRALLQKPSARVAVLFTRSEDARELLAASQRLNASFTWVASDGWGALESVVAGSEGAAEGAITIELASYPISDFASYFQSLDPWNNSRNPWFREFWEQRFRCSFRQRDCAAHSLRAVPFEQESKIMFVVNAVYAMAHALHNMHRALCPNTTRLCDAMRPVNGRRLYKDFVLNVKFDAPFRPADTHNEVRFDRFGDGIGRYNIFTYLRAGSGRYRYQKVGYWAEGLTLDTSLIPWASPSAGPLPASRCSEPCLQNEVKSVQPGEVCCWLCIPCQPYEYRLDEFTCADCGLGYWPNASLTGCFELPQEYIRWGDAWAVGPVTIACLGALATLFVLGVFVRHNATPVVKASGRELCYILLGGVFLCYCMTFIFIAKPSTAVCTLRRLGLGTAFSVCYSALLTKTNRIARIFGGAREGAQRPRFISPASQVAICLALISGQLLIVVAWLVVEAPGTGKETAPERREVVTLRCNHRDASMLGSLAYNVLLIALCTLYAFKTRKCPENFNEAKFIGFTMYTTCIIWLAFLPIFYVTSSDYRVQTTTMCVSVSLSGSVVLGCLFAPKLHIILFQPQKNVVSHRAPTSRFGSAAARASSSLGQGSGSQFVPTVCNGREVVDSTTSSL

For `NC(=O)c1cc(-c2ccc(F)cc2F)c2c(n1)[C@H]1CC[C@@H](C2)O1` [Example 1-2A, (6S,9R)-4-(2,4-difluorophenyl)-6,7,89-tetrahydro-5H-6,9-epoxycyclohepta[b]pyridine-2-carboxamide], the pIC50 was 6.42.

Take `NC(=O)c1cc(-c2ccc(F)cc2F)c2c(n1)O[C@H](CO)CC2` [Example 2-1A, (S)-5-(2,4-difluorophenyl)-2-(hydroxmethyl)-3,4-dihydro-2H-pyrano[2,3-b]pyridine-7-carboxamide]: the pIC50 is 7.42.

For `C[C@@H]1Cc2c(-c3ccc(F)cc3F)cc(C(N)=O)nc2O[C@@H]1CO` [Example 2-2A, (2S,3R)-5-(2,4-difluorophenyl)-2-(hydroxymethyl)-3-methyl-3,4-dihydro-2H-pyrano[2,3-b]pyridine-7-carboxamide], the pIC50 is 6.71.

As for `C[C@H]1Cc2c(-c3ccc(F)cc3F)cc(C(N)=O)nc2O[C@@H]1CO` [Example 2-2B, (2S,3S)-5-(2,4-difluorophenyl)-2-(hydroxymethyl)-3-methyl-3,4-dihydro-2H-pyrano[2,3-b]pyridine-7-carboxamide], the pIC50 is 7.82.

On to `C[C@@H]1Cc2c(-c3ccc(F)cc3F)cc(C(N)=O)nc2O[C@H]1CO` [Example 2-2C, (2R,3R)-5-(2,4-difluorophenyl)-2-(hydroxymethyl)-3-methyl-3,4-dihydro-2H-pyrano[2,3-b]pyridine-7-carboxamide], for which the pIC50 is 7.46.

As for `C[C@H]1Cc2c(-c3ccc(F)cc3F)cc(C(N)=O)nc2O[C@H]1CO` [Example 2-2D, (2R,3S)-5-(2,4-difluorophenyl)-2-(hydroxmethyl)-3-methyl-3,4-dihydro-2H-pyrano[2,3-b]pyridine-7-carboxamide], the pIC50 was 7.09.

`NC(=O)c1cc(-c2ccc(F)cc2F)c2c(n1)O[C@@H](C1CC1)CC2` [Example 2-3A, (R)-2-cyclopropyl-5-(2,4-difluorophenyl)-3,4-dihydro-2H-pyrano[2,3-b]pyridine-7-carboxamide]: the pIC50 was 7.70.

On to `NC(=O)c1cc(-c2ccc(F)cc2F)c2c(n1)O[C@H](C1CC1)CC2` [Example 2-3B, (S)-2-cyclopropyl-5-(2,4-difluorophenyl)-3,4-dihydro-2H-pyrano[2,3-b]pyridine-7-carboxamide], for which the pIC50 was 7.49.

`CC1(C)CCc2c(-c3ccc(F)cc3F)cc(C(N)=O)nc2O1` [Example 2-5, 5-(2,4-difluorophenyl)-2,2-dimethyl-3,4-dihydro-2H-pyrano[2,3-b]pyridine-7-carboxamide]: the pIC50 is 8.22.

For `CC1(C)COc2nc(C(N)=O)cc(-c3ccc(F)cc3F)c2C1` [Example 2-7, 5-(2,4-difluorophenyl)-3,3-dimethyl-3,4-dihydro-2H-pyrano[2,3-b]pyridine-7-carboxamide], the negative logarithm of the IC50 (pIC50) was 7.60.

For the molecule `C[C@@H](OC(F)F)[C@@H]1CCc2c(-c3ccc(F)cc3F)cc(C(N)=O)nc2O1` [Example 2-9B, (S)-2-((R)-1-(difluoromethoxy)ethyl)-5-(2,4-difluorophenyl)-3,4-dihydro-2H-pyrano[2,3-b]pyridine-7-carboxamide], the pIC50 was 6.94.

As to `C[C@H](OC(F)F)[C@H]1CCc2c(-c3ccc(F)cc3F)cc(C(N)=O)nc2O1` [Example 2-9C, (R)-2-((S)-1-(difluoromethoxy)ethyl)-5-(2,4-difluorophenyl)-3,4-dihydro-2H-pyrano[2,3-b]pyridine-7-carboxamide], the pIC50 is 7.96.

In the case of `C[C@@H](OC(F)F)[C@H]1CCc2c(-c3ccc(F)cc3F)cc(C(N)=O)nc2O1` [Example 2-9D, (R)-2-((R)-1-(difluoromethoxy)ethyl)-5-(2,4-difluorophenyl)-3,4-dihydro-2H-pyrano[2,3-b]pyridine-7-carboxamide], the pIC50 was 7.24.

In the case of `NC(=O)c1cc(-c2ccc(F)cc2F)c2c(n1)O[C@@H](COC(F)F)CC2` [Example 3-1A, (R)-2-((difluoromethoxy)methyl)-5-(2,4-difluorophenyl)-3,4-dihydro-2H-pyrano[2,3-b]pyridine-7-carboxamide], the pIC50 is 8.15.

`NC(=O)c1cc(-c2ccc(F)cc2F)c2c(n1)O[C@H](COC(F)F)CC2` [Example 3-1B, (S)-2-((difluoromethoxy)methyl)-5-(2,4-difluorophenyl)-3,4-dihydro-2H-pyrano[2,3-b]pyridine-7-carboxamide]: the pIC50 was 7.72.

In the case of `NC(=O)c1cc(-c2ccc(F)cc2F)c2c(n1)O[C@@H](C(F)F)CC2` [Example 3-7A, (R)-2-(difluoromethyl)-5-(2,4-difluorophenyl)-3,4-dihydro-2H-pyrano[2,3-b]pyridine-7-carboxamide], the pIC50 was 7.74.

Turning to `NC(=O)c1cc(-c2ccc(F)cc2F)c2c(n1)O[C@H](C(F)F)CC2` [Example 3-7B, (S)-2-(difluoromethyl)-5-(2,4-difluorophenyl)-3,4-dihydro-2H-pyrano[2,3-b]pyridine-7-carboxamide], the negative-log IC50 (pIC50) is 7.05.

On to `C[C@@H]1Cc2c(-c3ccc(F)cc3F)cc(C(N)=O)nc2O[C@H]1COC(F)F` [Example 3-9C, (2R,3R)-2-((difluoromethoxy)methyl)-5-(2,4-difluoropheny)-3-methyl-3,4-dihydro-2H-pyrano[2,3-b]pyridine-7-carboxamide], for which the pIC50 is 7.82.

For `NC(=O)c1cc(-c2ccc(F)cc2F)c2c(n1)O[C@H](CNCC(F)(F)F)CC2` [Example 4-2A, (S)-5-(2,4-difluoropheny)-2-(((2,2,2-trifluoroethyl)amino)methyl)-3,4-dihydro-2H-pyrano[2,3-b]pyridine-7-carboxamide], the pIC50 was 7.68.
